Assay: method code SF-AS, from DOI: 10.1002/qsar.19900090404

SMILES | logP
Cc1cccnn1 | -0.35
CC(=O)Nc1cnccn1 | -0.03
CC(=O)c1cnccn1 | 0.2
Nc1ccnnc1 | -0.53
CCOC(=O)c1cnccn1 | 0.28
COc1cnccn1 | 0.73
CCCOc1cnccn1 | 1.84
CC(=O)Nc1cncnc1 | -0.22
COc1cncnc1 | 0.07
COc1ccncn1 | 0.54
CCOC(=O)c1ncccn1 | -0.31
N#Cc1ncccn1 | -0.31
Fc1ncccn1 | 0.02
NC(=O)c1cncnc1 | -0.92
CC(=O)Nc1ccnnc1 | -0.41
CCOc1ccnnc1 | 0.2
Fc1cnccn1 | 0.29
CCc1ccccn1 | 1.6

SMILES | logP
COc1ncccn1 | 0.23
CN(C)c1ncccn1 | 1.07
COC(=O)c1cccnn1 | -0.43
NC(=O)c1ncccn1 | -1.2
COc1cccnn1 | 0.08
CCOC(=O)c1ccnnc1 | 0.23
NC(=O)c1cnccn1 | -0.5
Cc1ccnnc1 | -0.32
Clc1cnccn1 | 0.7
COC(=O)c1cncnc1 | 0.03
CCOc1cccnn1 | 0.63
Nc1ccncn1 | -0.25
NC(=O)c1ccnnc1 | -0.96
CCOc1ncccn1 | 0.74
N#Cc1ccnnc1 | -0.63
N#Cc1cnccn1 | -0.01
Cc1cncnc1 | 0.01
Fc1ccccn1 | 0.84

Results, then the compound that gave them:

logP | SMILES
1.17 | CSc1cnccn1
-0.73 | NC(=O)c1cccnn1
-0.27 | COC(=O)c1ccnnc1
1.81 | CCOc1ccccn1
0.52 | CCOC(=O)c1cncnc1
0.97 | CCOc1ccncn1
0.1 | Clc1cccnn1
0.58 | CN(C)c1ccncn1
-0.27 | COC(=O)c1ccncn1
1.01 | CSc1ncccn1
-0.68 | NC(=O)c1ccncn1
0.56 | CCOc1cncnc1
0.36 | Clc1ncccn1
2.38 | CCCOc1ccccn1
0.46 | CN(C)c1cncnc1
-0.05 | Cc1ncccn1
-0.03 | Fc1cncnc1
1.28 | CCOc1cnccn1
-0.71 | COC(=O)c1ncccn1
0.03 | CC(=O)Nc1ccncn1
